In US10160867B2, “Benzoxaborole-containing coating resistant to cellulose-supportable fungus” (THE PENN STATE RESEARCH FOUNDATION, priority 2015, dated 2018):
Values after ≈ are worked out from the molar mass of the structure shown. Like-named read-outs stand apart in the source and are kept apart here.

Assays:
Format in all cases: cell-based
[1] = test system: Aspergillus fumigatus; assay: 3 day MIC, broth microdilution in 25% PDB; conditions: 72 h
Procedure: (§1) Stock solutions (concentrations of between 4,000 μg/mL to 10,000 μg/mL; stored at −18° C.) of the above antifungals were prepared in dimethyl sulfoxide (DMSO). The stock solutions were further diluted into sterile 25% potato dextrose broth (PDB) so that the diluted solutions could be used for the antifungal susceptibility studies. This way, a typical microdilution study would reach a final ratio of about 0.5-2% v/v of DMSO in 25% PDB.
(§2) Spore inocula were prepared in sterile distilled water with 0.1% Tween® 20 (a polysorbate surfactant), and a hemocytometer was used to determine the spore density. Typically, the spore inoculum was prepared fresh prior to each study, and the inoculum was appropriately diluted to a final concentration of 0.4-1×10^5 spores/mL or colony-forming unit (CFU)/mL in each study. The spore suspension can be stored in a refrigerator at 4° C. for up to one week.
The minimal inhibitory concentrations (MICs) for individual antifungal agents were determined by following a modified broth microdilution protocol CLSI (Clinical and Laboratory Standards Institute) M38-A2 [Clinical and Laboratory Standards Institute (2008) Reference method for broth dilution antifungal susceptibility testing of filamentous fungi—2nd edition: Approved Standard M38-A2, CLSI, Wayne, Pa.] where 25% potato dextrose broth (PDB) was used as the medium. The studies were performed in flat bottom, 96-well microtiter plates (Greiner Bio-One, Frickenhausen, Germany).
(§3) Plates sealed with clear polyester film (VWR, Radnor, Pa.) were incubated at a temperature of about 25° C. The progress of fungal growth was monitored at 48 hours and 72 hours.

[2] = test system: Penicillium corylophilum; assay: 3 day MIC, broth microdilution in 25% PDB; conditions: 72 h, read-out: 3 day MIC
Procedure: as §1, §2
(§4) The studies were performed in flat bottom, 96-well microtiter plates (Greiner Bio-One, Frickenhausen, Germany).
as §3

[3] = test system: Penicillium brevicompactum; assay: 3 day MIC, broth microdilution in 25% PDB; conditions: 72 h, read-out: 3 day MIC
Procedure: as §1, §2, §4, §3

[4] = test system: Penicillium purpurogenum; assay: 3 day MIC, broth microdilution in 25% PDB; conditions: 72 h, read-out: 3 day MIC
Procedure: as §1, §2, §4, §3

[5] = test system: Stachybotrys chartarum; assay: 3 day MIC, broth microdilution in 25% PDB; conditions: for MIC: 72 h, read-out: 3 day MIC
Procedure: as §1, §2, §4, §3

[6] = test system: Alternaria alternata; assay: 3 day MIC, broth microdilution in 25% PDB; conditions: 72 h, read-out: 3 day MIC
Procedure: as §1, §2, §4, §3

[7] = test system: Penicillium chrysogenum; assay: Fungus resistance test for painted surfaces containing antifungal additives (defacement rating); set-up: key: 10 = no defacement, 0 = completely defaced
Procedure: (§5) A Defacement Rating is measured by estimating the percentage of surface defacement with 10 being no defacement and 0 begin completely defaced.
(§6) This test was used to evaluate the resistance of paint films containing antifungal additives to surface fungal growth.
(§7) Olympic® Home interior flat latex paint (PPG Industries, Pittsburgh, Pa.) and Valspar® QuikHide White flat interior paint (Valspar Corporation, Minneapolis, Minn.) were used for all studies unless otherwise noted. Stock solutions of the antifungal additives of interest were prepared in reagent grade dimethyl sulfoxide (DMSO; Alfa Aesar, Ward Hill, Mass.). Additives were spiked (by adding appropriate amounts of the antifungal stock solutions) into the liquid paint at specified concentrations. Samples of the additive-spiked paint were vigorously mixed with a vortex mixer for at least one minute to ensure uniform dispersion of the additive in the paint. […] Studies that use other brands of paint followed the same protocol as described for those using the Olympic® Home interior flat latex paint and Valspar® QuikHide paint.
(§8) Test surfaces were prepared in triplicate. In most cases, the tested conditions were repeated on a different date, again in triplicate. […] Two coats of paint were applied with a polyester brush to completely cover both faces of the filter paper disc, allowing at least four hours drying time between coats.
(§9) Nutrient-Salts Agar (NSA) medium was prepared according to ASTM method G21-13 in 100×15 mm sterile polystyrene petri dishes (VWR® Radnor, Pa.) with a solidified agar layer of about 3 to about 6 mm (⅛ to ¼ in.) in depth. The agar was allowed to solidify for at least 24 hours before being used. The painted test filter paper discs were placed in the center of the agar plates in a biosafety hood while wearing clean nitrile gloves.
(§10) The paint coatings were evaluated against three representative cellulose-supportable fungi: Stachybotrys chartarum, Penicillium chrysogenum, and Alternaria alternata. […] Fungal isolates of Alternaria alternata and Penicillium chrysogenum were obtained from the Plant Pathology and Environmental Microbiology Department at Penn State University.
(§11) A spore suspension of each of these fungi was prepared by pouring a 20-mL portion of autoclaved deionized water containing 0.01% Tween® 20 onto a subculture of each fungal species. Spores were counted with the use of a hemocytometer (Hausser Scientific, Horsham, Pa.) under a compound light microscope. Spore suspensions of Stachybotrys chartarum and Penicillium chrysogenum were diluted to 1×10^6 spores/mL with autoclaved deionized water. Spore suspensions of Alternaria alternata were used “as is” in the range of 200,000 to 400,000 spores/mL.
(§12) Painted test surfaces were inoculated with a spray bottle or with a sterile cotton-tipped applicator. To inoculate the sample with a spray bottle, the spore suspension was sprayed twice on the painted test discs with an autoclaved spray bottle that delivered approximately 0.14 g of fluid per spray. To inoculate the sample with a cotton-tipped applicator, an autoclaved cotton-tipped applicator was submerged in approximately 400 μL of the spore inoculum solution (spore concentrations described above) and applied evenly over the surface of the painted test surface twice. A fresh autoclaved cotton-tipped applicator was used for the application of each painted disc. All the paint studies with Alternaria alternata and Stachybotrys chartarum were inoculated using the spray bottle method. For studies with Penicillium chrysogenum using Olympic® Home paint, the spray bottle inoculation method was used. For studies with Penicillium chrysogenum using Valspar® QuikHide paint, the cotton-tipped applicator inoculation method was used.
(§13) After inoculation, the NSA agar plates were sealed with Parafilm®.

[8] = test system: Stachybotrys chartarum; assay: as above; set-up: key: 10 = no defacement, 0 = completely defaced; conditions: +100 μg/mL in Olympic Home paint
Procedure: as §5, §6, §7, §8, §9, §10, §11, §12, §13

[9] = test system: Alternaria alternata; assay: as above; set-up: key: 10 = no defacement, 0 = completely defaced; conditions: +100 μg/mL in Olympic Home paint
Procedure: as §5, §6, §7, §8, §9, §10, §11, §12, §13

[10] = test system: Penicillium chrysogenum; assay: 3 day MIC, broth microdilution in 25% PDB; conditions: 72 h, read-out: 3 day MIC
Procedure: as §1, §2, §4, §3

[11] = Penicillium purpurogenum, 25% PDB
[12] = +100 μg/mL in Olympic Home paint, 7 days
[13] = +100 μg/mL in Olympic Home paint, 14 days
[14] = +100 μg/mL in Olympic Home paint, 21 days
[15] = +200 μg/mL in Olympic Home paint, 7 days
[16] = +200 μg/mL in Olympic Home paint, 14 days
[17] = +200 μg/mL in Olympic Home paint, 21 days
[18] = +200 μg/mL in Valspar QuikHide paint, 7 days
[19] = +200 μg/mL in Valspar QuikHide paint, 14 days
[20] = +200 μg/mL in Valspar QuikHide paint, 21 days

| SMILES | MIC ([2]; 25% PDB) [µg/mL] | MIC ([3]; 25% PDB) [µg/mL] | MIC [4, 11] [µg/mL] | MIC ([5]; 25% PDB) [µg/mL] | MIC ([6]; 25% PDB) [µg/mL] | Average defacement rating ± standard deviation [7, 12] | Average defacement rating ± standard deviation [7, 13] | Average defacement rating ± standard deviation [7, 14] | Average defacement rating ± standard deviation [7, 15] | Average defacement rating ± standard deviation [7, 16] | Average defacement rating ± standard deviation [7, 17] | Average defacement rating ± standard deviation [7, 18] | Average defacement rating ± standard deviation [7, 19] | Average defacement rating ± standard deviation [7, 20] | Average defacement rating ± standard deviation ([8]; 7 days) | Average defacement rating ± standard deviation ([8]; 14 days) | Average defacement rating ± standard deviation ([8]; 21 days) | Average defacement rating ± standard deviation ([9]; 7 days) | Average defacement rating ± standard deviation ([9]; 14 days) | Average defacement rating ± standard deviation ([9]; 21 days) | further results |
| --- | --- | --- | --- | --- | --- | --- | --- | --- | --- | --- | --- | --- | --- | --- | --- | --- | --- | --- | --- | --- | --- |
| OB1OCc2cc(F)ccc21 [Compound B9, 5-Fluoro-1,3-dihydro-2,1-benzoxaborol-1-ol] | 0.39 (≈ 2.57 µM) | 0.2 (≈ 1.32 µM) | 0.78 (≈ 5.13 µM) | 0.13 (≈ 0.856 µM) | 1.6 (≈ 10.5 µM) | 3.7 ± 1.5 | 0.0 ± 0.0 | 0.0 ± 0.0 | 10.0 ± 0.0 | 9.8 ± 0.4 | 6.7 ± 3.9 | 10.0 ± 0.0 | 10.0 ± 0.0 | 9.7 ± 0.6 | 9.9±0.3 | 4.4 ± 2.9 | 2.0 ± 2.8 | 7.4±1.8 | 3.8 ± 0.9 | 3.8±0.9 | MIC [1]: 0.5 µg/mL (≈ 3.29 µM) |
| CCCCCCCCn1sccc1=O [OIT, 2-Octyl-4-isothiazolin-3-one] | < 0.1 | < 0.1 | < 0.1 | 0.1 (≈ 0.469 µM) | 200 (≈ 937 µM) | 10.0 ± 0.0 | 10.0 ± 0.0 | 9.3 ± 1.5 | 10.0 ± 0.0 | 10.0 ± 0.0 | 9.8 ± 0.4 | 10.0 ± 0.0 | 10.0 ± 0.0 | 10.0 ± 0.0 | 9.9 ± 0.3 | 8.2 ± 2.5 | 6.9 ± 2.4 | 8.1±0.3 | 6.9 ± 1.0 | 4.9±0.7 | MIC ([10]; 25% PDB): < 0.1 µg/mL |
| Oc1cc(Cl)ccc1Oc1ccc(Cl)cc1Cl [Triclosan, triclosan] |  |  |  |  |  | 1.8 ± 1.4 | 0.0 ± 0.0 | 0.0 ± 0.0 | 9.3 ± 0.5 | 0.2 ± 0.4 | 0.0 ± 0.0 | 4.0 ± 3.6 | 0.0 ± 0.0 | 0.0 ± 0.0 | 0.8 ± 1.4 | 0.0 ± 0.0 | 0.0 ± 0.0 | 0.1 ± 0.4 | 0.0 ± 0.0 | 0.0 ± 0.0 | MIC [2]: 3.13 µg/mL (≈ 10.8 µM); MIC [3]: 3.1 µg/mL (≈ 10.7 µM); MIC [10]: 6.3 µg/mL (≈ 21.8 µM); MIC ([4]; Penicillium): 3.13 µg/mL (≈ 10.8 µM); 3 day MIC ([5]; 25% PDB): <0.1 µg/mL; MIC [5]: < 0.1 µg/mL; MIC [6]: 6.3 µg/mL (≈ 21.8 µM) |
